Results on 25 compounds are retold here after patent publication US8853230B2, “Inhibitors of JAK” (Portola Pharmaceuticals, Inc., priority 2009, dated 2014).

One experiment concerns the target T1, JAK1 (Homo sapiens, UniProt P23458).
T1 construct: 5 μl of catalytic domain recombinant Kinase enzyme+Tyr peptide substrate (Invitrogen, Calif.); purchased Invitrogen
In words: Z'-LYTE kinase assay, JAK1 tyrosine phosphorylation activity. Type of experiment: biochemical. The note with it: read-out: JAK 1 IC50. A digest of the protocol: (§1)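 FRET-based Z′-LYTE format with recombinant catalytic-domain kinases and Tyr6 peptide substrate; compounds in 1% DMSO final, duplicate wells. Kinase reaction with ATP runs 1 h at room temperature, then protease development 1 h; fluorescence read at ex 400, em 445/520 nm. IC50 from 4-parameter logistic fit of percent phosphorylation versus uninhibited.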

The target of another experiment is Syk (Homo sapiens, UniProt P43405). Briefly: Syk IC50 (Table 1; method not given). Type of experiment: biochemical.
The next experiment addresses T2, JAK3 (Homo sapiens, UniProt P52333).
T2 construct: 5 μl of catalytic domain recombinant Kinase enzyme+Tyr peptide substrate (Invitrogen, Calif.); purchased Invitrogen
Briefly: Z'-LYTE kinase assay, JAK3 tyrosine phosphorylation activity. It counts as biochemical. An outline of the steps: as §1

The target in the next experiment is T3, JAK2 (Homo sapiens, UniProt O60674).
T3 construct: 5 μl of catalytic domain recombinant Kinase enzyme+Tyr peptide substrate (Invitrogen, Calif.); purchased Invitrogen
T3 sequence (O60674 849-1124 limits assumed): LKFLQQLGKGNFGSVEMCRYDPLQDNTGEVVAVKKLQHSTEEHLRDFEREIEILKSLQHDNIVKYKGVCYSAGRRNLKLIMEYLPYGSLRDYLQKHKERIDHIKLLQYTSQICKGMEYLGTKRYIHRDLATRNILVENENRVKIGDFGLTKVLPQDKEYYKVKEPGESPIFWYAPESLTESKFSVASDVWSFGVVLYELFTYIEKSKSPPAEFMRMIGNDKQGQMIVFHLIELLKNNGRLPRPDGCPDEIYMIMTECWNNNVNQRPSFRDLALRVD
In words: Z'-LYTE kinase assay, JAK2 tyrosine phosphorylation activity. Type of experiment: biochemical. An outline of the steps:
as §1

The target in the next experiment is T4, TYK2 (Homo sapiens, UniProt P29597).
T4 construct: 5 μl of catalytic domain recombinant Kinase enzyme+Tyr peptide substrate (Invitrogen, Calif.); purchased Invitrogen
T4 sequence (P29597 897-1176 limits assumed): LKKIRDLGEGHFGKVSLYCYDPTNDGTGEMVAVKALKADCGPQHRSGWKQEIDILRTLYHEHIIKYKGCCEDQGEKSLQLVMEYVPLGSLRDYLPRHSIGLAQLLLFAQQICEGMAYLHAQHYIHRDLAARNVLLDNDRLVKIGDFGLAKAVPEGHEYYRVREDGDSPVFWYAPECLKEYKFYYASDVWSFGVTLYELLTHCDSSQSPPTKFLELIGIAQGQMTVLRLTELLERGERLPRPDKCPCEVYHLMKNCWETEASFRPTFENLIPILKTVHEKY
In words: Z'-LYTE kinase assay, TYK2 tyrosine phosphorylation activity. Type of experiment: biochemical. A digest of the protocol:
as §1

Experiment [1] concerns IL4-induced phospho STAT6 formation in Ramos B lymphocytes. Briefly: Inhibition of IL4-induced phospho STAT6 formation in Ramos B lymphocytes (flow cytometry). The note with it: for inhibition at 0.2 µM / inhibition at 1 µM: Homo sapiens; for inhibition at 0.2 µM: read-out: % Inhibition of IL-4 Induced STAT6 Phosphorylation 200 nM; for inhibition at 1 µM: read-out: % Inhibition of IL-4 Induced STAT6 Phosphorylation 1 μM. Type of experiment: cell-based, human. A digest of the protocol:
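Human Ramos B cells (0.5 million) pre-incubated 1 h at 37°C/5% CO2 with compound or DMSO, then stimulated with 1 ng/ml IL4 for 10 min. Cells were PFA-fixed, methanol-permeabilized and stained with Alexa-anti-phosphoSTAT6 (Y641); flow cytometry mean fluorescence gave percent inhibition of the IL4 signal.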

Where only a bound is given, the exact number is not on record here.

T1 sequence (P23458 875-1153 limits assumed): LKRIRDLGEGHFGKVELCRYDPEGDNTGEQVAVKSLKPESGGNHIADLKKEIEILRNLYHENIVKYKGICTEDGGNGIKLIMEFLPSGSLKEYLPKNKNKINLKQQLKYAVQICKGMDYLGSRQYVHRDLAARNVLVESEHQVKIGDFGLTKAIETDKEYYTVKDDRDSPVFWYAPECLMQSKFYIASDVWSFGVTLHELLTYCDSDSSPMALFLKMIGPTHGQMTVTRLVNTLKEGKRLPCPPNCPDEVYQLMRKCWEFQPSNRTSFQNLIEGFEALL
T2 sequence (P52333 822-1111 limits assumed): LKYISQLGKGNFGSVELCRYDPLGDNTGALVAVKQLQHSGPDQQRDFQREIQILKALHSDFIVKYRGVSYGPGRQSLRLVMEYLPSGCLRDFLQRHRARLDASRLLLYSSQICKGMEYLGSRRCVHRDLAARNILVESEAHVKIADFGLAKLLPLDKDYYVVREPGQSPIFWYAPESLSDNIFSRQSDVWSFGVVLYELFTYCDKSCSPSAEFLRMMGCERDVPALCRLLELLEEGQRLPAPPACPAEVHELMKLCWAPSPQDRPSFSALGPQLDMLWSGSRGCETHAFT

Take `CC(=O)Nc1cccc(Nc2ncc(C(N)=O)c(NCc3ccc(Cl)c(Cl)c3)n2)c1` [Example 70, 2-(3-acetamidophenylamino)-4-(3,4-dichlorobenzylamino)pyrimidine-5-carboxamide]: the IC50 (commonly the concentration that gives 50% inhibition) at JAK1 is more than 1000 nM; on Syk, more than 1000 nM; against JAK3, 100 to 1000 nM; on JAK2 it was 100 to 1000 nM.

Regarding `COc1ccc(CNc2nc(Nc3cccc(NC(C)=O)c3)ncc2C(N)=O)cc1` [Example 68, 2-(3-acetamidophenylamino)-4-(4-methoxybenzylamino)pyrimidine-5-carboxamide], the IC50 is 100 to 1000 nM on JAK1, more than 1000 nM at Syk, 10 to 100 nM at JAK3 and 100 to 1000 nM against JAK2.

On to `CC(=O)Nc1cccc(Nc2ncc(C(N)=O)c(NCCC(N)=O)n2)c1` [Example 61, 2-(3-acetamidophenylamino)-4-(3-amino-3-oxopropylamino)pyrimidine-5-carboxamide], for which the half-maximal inhibitory concentration (IC50) at JAK1 is 10 to 100 nM; at Syk, more than 1000 nM; against JAK3 it was 10 to 100 nM; at JAK2, 100 to 1000 nM.

Take `CCC(=O)Nc1cccc(Nc2ncc(C(N)=O)c(NC3CCCC3)n2)c1` [Example 21, 4-(cyclopentylamino)-2-(3-propionamidophenylamino)pyrimidine-5-carboxamide]: the IC50 at JAK1 fell in the range of 10 to 100 nM; against Syk it was 100 to 1000 nM; against JAK3, 1 to 10 nM; at JAK2, 10 to 100 nM.

In turn, `CC(=O)Nc1cccc(Nc2ncc(C(N)=O)c(NCC3CC3)n2)c1` [Example 12, 2-(3-acetamidophenylamino)-4-(cyclopropylmethylamino)pyrimidine-5-carboxamide] returned an IC50 on Syk of 100 to 1000 nM.

The compound `COCCNc1nc(Nc2cccc(NC(C)=O)c2)ncc1C(N)=O` [Example 14, 2-(3-acetamidophenylamino)-4-(2-methoxyethylamino)pyrimidine-5-carboxamide] yielded an IC50 against Syk of 100 to 1000 nM.

On to `COCC(=O)Nc1cccc(Nc2ncc(C(N)=O)c(NCc3c(F)ccc(F)c3F)n2)c1` [Example 58, 2-(3-(2-methoxyacetamido)phenylamino)-4-(2,3,6-trifluorobenzylamino)pyrimidine-5-carboxamide], for which the IC50 is 10 to 100 nM at JAK1, 100 to 1000 nM on Syk, 1 to 10 nM at JAK3 and 1 to 10 nM against JAK2.

`CNC(=O)CNc1nc(Nc2cccc(NC(C)=O)c2)ncc1C(N)=O` [Example 72, 2-(3-acetamidophenylamino)-4-(2-(methylamino)-2-oxoethylamino)pyrimidine-5-carboxamide]: the half-inhibitory concentration (IC50) on JAK1 is 100 to 1000 nM; against Syk, more than 1000 nM; against JAK3, 10 to 100 nM; against JAK2 it was 100 to 1000 nM.

On to `COCC(=O)Nc1cccc(Nc2ncc(C(N)=O)c(NC3CCC3)n2)c1` [Example 55, 4-(cyclobutylamino)-2-(3-(2-methoxyacetamido)phenylamino)pyrimidine-5-carboxamide], for which the IC50 on JAK1 was in the range of 10 to 100 nM; against Syk, 100 to 1000 nM; at JAK3, 1 to 10 nM; against JAK2, 10 to 100 nM.

Consider `COCC(=O)Nc1cccc(Nc2ncc(C(N)=O)c(NCc3ccc(Cl)cc3)n2)c1` [Example 45, 4-(4-chlorobenzylamino)-2-(3-(2-methoxyacetamido)phenylamino)pyrimidine-5-carboxamide], for which the IC50 was more than 1000 nM at JAK1, more than 1000 nM against Syk, 100 to 1000 nM against JAK3 and 100 to 1000 nM against JAK2.

`C#CCNc1nc(Nc2cccc(NC(C)=O)c2)ncc1C(N)=O` [Example 10, 2-(3-acetamidophenylamino)-4-(prop-2-ynylamino)pyrimidine-5-carboxamide] came in with an IC50 against Syk of 100 to 1000 nM.

For the compound `CC(=O)Nc1cccc(Nc2ncc(C(N)=O)c(NC3CCC3)n2)c1` [Example 1, 2-(3-acetamidophenylamino)-4-(cyclobutylamino)pyrimidine-5-carboxamide], the 50% inhibitory concentration (IC50) at JAK1 was 10 to 100 nM; against Syk, 100 to 1000 nM; at JAK3, 1 to 10 nM; on JAK2 it was 10 to 100 nM.

For `CC(=O)Nc1cccc(Nc2ncc(C(N)=O)c(NCC#N)n2)c1` [Example 74, 2-(3-acetamidophenylamino)-4-(cyanomethylamino)pyrimidine-5-carboxamide], the IC50 on JAK1 lay in the range of 10 to 100 nM; against Syk it was 100 to 1000 nM; against JAK3, 10 to 100 nM; against JAK2, 10 to 100 nM.

`COCCCNc1nc(Nc2cccc(NC(C)=O)c2)ncc1C(N)=O` [Example 16, 2-(3-acetamidophenylamino)-4-(3-methoxypropylamino)pyrimidine-5-carboxamide]: the IC50 against Syk lay in the range of 100 to 1000 nM.

At Syk, `CC(=O)Nc1cccc(Nc2ncc(C(N)=O)c(NC(C)(C)C)n2)c1` [Example 13, 2-(3-acetamidophenylamino)-4-(tert-butylamino)pyrimidine-5-carboxamide] returned an IC50 of 100 to 1000 nM.

In the case of `CCNc1nc(Nc2cccc(NC(C)=O)c2)ncc1C(N)=O` [Example 9, 2-(3-acetamidophenylamino)-4-(ethylamino)pyrimidine-5-carboxamide], at Syk, the IC50 is 100 to 1000 nM.

Turning to `CNc1nc(Nc2cccc(NC(C)=O)c2)ncc1C(N)=O` [Example 8, 2-(3-acetamidophenylamino)-4-(methylamino)pyrimidine-5-carboxamide], on Syk, the IC50 was in the range of 100 to 1000 nM.

With `NC(=O)c1cnc(Nc2cccc(NC(=O)N3CCC3)c2)nc1NCc1ccccc1` [Example 222, 2-(3-(azetidine-1-carboxamido)phenylamino)-4-(benzylamino)pyrimidine-5-carboxamide], the IC50 on TYK2 lay in the range of 1 to 10 nM; on JAK1 it was 10 to 100 nM; at JAK3, 1 to 10 nM; against JAK2 it was 10 to 100 nM. Moreover, in experiment [1] (200 nM compound), the inhibition (commonly how much of the control response was suppressed) at 0.2 µM came to 47.7%. In experiment [1] (1 μM compound), the inhibition at 1 µM turned out to be 86.7%.

`CC(=O)Nc1cccc(Nc2ncc(C(N)=O)c(NC(C)C)n2)c1` [Example 11, 2-(3-acetamidophenylamino)-4-(isopropylamino)pyrimidine-5-carboxamide] showed an IC50 at Syk of 100 to 1000 nM.

For the compound `CC(=O)Nc1cc(Nc2ncc(C(N)=O)c(NCc3ccccc3)n2)ccc1F` [Example 156, 2-(3-acetamido-4-fluorophenylamino)-4-(benzylamino)pyrimidine-5-carboxamide], the IC50 at TYK2 was in the range of 1 to 10 nM; at JAK1, 10 to 100 nM; on JAK3 it was 1 to 10 nM; on JAK2 it was 10 to 100 nM. Further, the inhibition at 0.2 µM in experiment [1] (200 nM compound) came out at 28%. The inhibition at 1 µM in experiment [1] (1 μM compound) was found to be 71.3%.

Turning to `CC(C)[C@H](C)Nc1nc(Nc2ccc(Cl)c(NC(=O)N3CCCC3)c2)ncc1C(N)=O` [Example 248, (S)-2-(4-chloro-3-(pyrrolidine-1-carboxamido)phenylamino)-4-(3-methylbutan-2-ylamino)pyrimidine-5-carboxamide], the IC50 at TYK2 is 10 to 100 nM; on JAK1, 10 to 100 nM; against JAK3 it was 10 to 100 nM; against JAK2 it was more than 1000 nM. Further, the inhibition at 0.2 µM in experiment [1] (200 nM compound) was determined as 61.3%. The inhibition at 1 µM in experiment [1] (1 μM compound) came to 94.7%.

With `COC[C@H]1CCCN1C(=O)Nc1cccc(Nc2ncc(C(N)=O)c(N[C@H](C)c3ccccc3)n2)c1` [Example 149, 2-(3-((R)-2-(methoxymethyl)pyrrolidine-1-carboxamido)phenylamino)-4-((R)-1-phenylethylamino)pyrimidine-5-carboxamide], the IC50 on TYK2 is 10 to 100 nM; at JAK1, 100 to 1000 nM; at JAK3 it was 1 to 10 nM; on JAK2, 10 to 100 nM. The inhibition at 0.2 µM in experiment [1] (200 nM compound) is 6.7%. Moreover, the inhibition at 1 µM in experiment [1] (1 μM compound) was 44%.

For `CC(=O)Nc1cc(Nc2ncc(C(N)=O)c(NCc3ccccc3)n2)ccc1C` [Example 155, 2-(3-acetamido-4-methylphenylamino)-4-(benzylamino)pyrimidine-5-carboxamide], the IC50 is 1 to 10 nM on TYK2, 10 to 100 nM on JAK1, 1 to 10 nM at JAK3 and 10 to 100 nM at JAK2. Further, the inhibition at 0.2 µM in experiment [1] (200 nM compound) turned out to be 71.7%. Further, in experiment [1] (1 μM compound), the inhibition at 1 µM was 88%.

With `CCNC(=O)Nc1cc(Nc2ncc(C(N)=O)c(NCc3ccccc3)n2)ccc1Cl` [Example 153], the IC50 fell in the range of 10 to 100 nM against TYK2, 100 to 1000 nM at JAK1, 10 to 100 nM against JAK3 and 100 to 1000 nM at JAK2. Besides, the inhibition at 0.2 µM in experiment [1] (200 nM compound) was 22.3%. Moreover, the inhibition at 1 µM in experiment [1] (1 μM compound) worked out at 51.7%.

Regarding “2-(3-(azetidine-1-carboxamido)phenylamino)-4-(benzylamino)pyrimidine-5-carboxamide [Example 219]”, the IC50 lay within 10 to 100 nM on TYK2, 10 to 100 nM at JAK1, 1 to 10 nM against JAK3 and 10 to 100 nM at JAK2. Also, the “% Inhibition of IL-4 Induced STAT6 Phosphorylation 200 nM” value in experiment [1] (200 nM compound) is given as 19.0%. Besides, the “% Inhibition of IL-4 Induced STAT6 Phosphorylation 1 μM” value in experiment [1] (1 μM compound) is on record as 65.3%.
